We go through 36 sequences from EP0671947B1, “COMPOSITIONS FOR ELICITING CYTOTOXIC T-[…] AGAINST VIRUSES” (BOARD OF REGENTS THE UNIVERSITY OF TEXAS SYSTEM, priority 1991, dated 1993).

“Also recorded” adds a separate entry of the source. Read-outs that look alike come from different tables or passages of the source. Ends that are not written are not given here.

In one experiment the test system is BALB/c mice. Description: ELISA for anti-peptide antibody response after immunization. The following applies: high molecular weight forms. A general note: An ELISA detects its analyte on a solid surface through an enzyme-linked reagent.
The format of experiment [1] is in vivo, Balb/c mice. The following applies: helper T-cell peptide injected alone.
Experiment [2] concerns HIV-1 infected CCRF-CEM and uninfected Molt-4 cells. Conditions: cited from earlier work.
The test system of a further experiment is PBMC. Kind of experiment: PBMC proliferation after immunization with a mixture of eight synthetic peptides. The class given is in vivo, rhesus monkeys. More on the design: key to T-cell Proliferation Responses, Rhesus Monkey #7 / T-cell Proliferation Responses, Rhesus Monkey #23 / T-cell Proliferation Responses, Rhesus Monkey #283C: (-), no detectable response; (1+), poor response; (2+), good response; (3+), better response; (4+, 6+), best response; (4+, 6+), best response. The following applies: for T-cell Proliferation Responses, Rhesus Monkey #7 / T-cell Proliferation Responses, Rhesus Monkey #23 / T-cell Proliferation Responses, Rhesus Monkey #283C: PBMC response to the individual antigen after immunization with mixture of eight peptides; for proliferative responses of PBMCs (in words): three rhesus monkeys immunized with mixture of eight peptides. As for the experimental part: In the present studies, three rhesus monkeys (#7, #23 and #283C) were immunized subcutaneously with 1 ml (0.1 ml/site) of a mixture of eight synthetic peptides (300 µg of each peptide in sterile water) emulsified in complete Freund's adjuvant at 1:1 ratio. […] At 3 and 7 weeks after the primary immunization, two booster injections of the peptide mixture (150 µg of each peptide in sterile water) emulsified in incomplete Freund's adjuvant were given to each monkey. Monkey #7 was terminated after 34 weeks, for health reasons unrelated to the study, while the remaining two monkeys (#283C and #23) received one additional booster injection at 25 weeks.
At two week intervals following the first immunization of each animal, 15 ml of whole heparinized blood was collected by venous puncture. The peripheral blood mononuclear cells (PBMC) were separated by standard ficoll-hypaque centrifugation and employed in proliferation assays. The PBMCs were monitored every two weeks for a period of 32 weeks for proliferative responses against individual peptides and recombinant gp160.

The subject of the next experiment is PLN cells. Kind of experiment: In vitro proliferation of PLN cells (3H-TdR incorporation) after footpad immunization. It is filed as in vivo, B6C3 F1 mice. The following applies: disulfide (di-Cys) polymeric form; summary of mouse studies. As for the experimental part: The high molecular weight, multimeric di-Cys peptide polymeric forms of the peptides described in EXAMPLE 1 were assayed for their elicitation of a T cell proliferative response as in Millich et al. (1985).
FIGURES 2-5 illustrate the peptide-specific ^3H-TdR incorporation for T cell responses (delta cpm) in mice with differing major histocompatibility (MHC) haplotypes, B6C3 F1 (C57B1/6xC^3H/HcJ) mice (FIGURES 2 and 4) and (A.SWxBALB/c) F1 mice (FIGURES 3 and 5), for all of the synthetic peptides. The ^3H-TdR incorporation values represent the difference between the radioactivity values obtained in wells containing antigen and in control wells without added antigen. The non-specific proliferation of PLN cells was determined by including an unrelated peptide in the assays, shown as a horizontal bar for each peptide.

In the next experiment the test system is HIV-1 IIIB. Description: Effect of V3 loop peptides on HIV-1 IIIB infection of human cells (RT activity). Conditions: No Peptide 7528, Uninfected cells 558. It is filed as cell-based. The source says:
As detailed in TABLE 11A, these peptides include D23, D24, D25, D26, D30, D35, D38, D39, D40 and D44, which reflect a variety of strains such as mn, rf, wmj-3, sc, z6, eli, mn (y-l) and mn (y-p). However, it is important to note that this assay was confined specifically to inhibiting the infection of the heterologous strain HIV-1 IIIB. […]

For the next experiment, the system named is P815. Conditions: […]; same immunization protocol.
Experiment [3] concerns envelope protein gp160 of HIV-1 IIIB, mn or rf strains. The class given is cell-based.
The subject of a further experiment is HIV-1. It is filed as cell-based, HIV-1 IIIB. The following applies: 1 µg/ml; RT activity in culture supernatant after 9 days; IIIB strain.
The next experiment deals with 3A9. It is filed as in vivo, Balb/c mice. The following applies: effector cells: No Treatment, target 3A9 (H-2^k).

On to CRIKQIINMWQGVGKAMYA [Peptide 65], for which the “anti-peptide antibody titers (in words)” value with BALB/c mice is listed as “high antibody titers”.

In the case of CRIKQIINMWQGVGKAMYA [Peptide 122], the CTL-inducing activity entry in [1] is listed as “lacked CTL-inducing activity”.

For the sequence “CTRPNNNTRKSIRIQRGPGRAFVTIGKIGNMRQAHC [reference compound]”, the “inhibition of syncytium formation” value in [2] (100 µM (approximately 300 µg/ml)) is given as 30-60%.

With FEPIPIHYCAFPGF [Peptide 114], the “anti-peptide antibody titers (in words)” value in the experiment on BALB/c mice is “high antibody titers”.

For the sequence FLGFLGAAGSTMGAASLTLTVQANQ [Peptide 63], in the experiment on PBMC, the “T-cell Proliferation Responses, Rhesus Monkey #7” value is given as 2+; the “T-cell Proliferation Responses, Rhesus Monkey #23” value is 4+; the “T-cell Proliferation Responses, Rhesus Monkey #283C” value is given as 3+; the “proliferative responses of PBMCs (in words)” value (“proliferative responses” for short) was “good proliferative responses”. Also, the “anti-peptide antibody titers (in words)” value with BALB/c mice is reported as “very low to negligible; also recorded: do not stimulate anti-peptide antibody production”. The “T cell response directed against both the corresponding peptide and native gp160” value (“T cell response directed” below) in the experiment with PLN cells is “strong T cell response”.

For the sequence GIAIGPGRTLYAREK [Peptide D27], the “RT ACTIVITY (CPM)” value in the experiment on HIV-1 IIIB is listed as 7657 CPM.

Consider GIHFGPGQALYTTGI [Peptide D33], for which the “RT ACTIVITY (CPM)” value in the experiment on HIV-1 IIIB is listed as 8959 CPM.

As to GTGPCTNVSTVQC [Peptide 116], in the experiment on PBMC, the “T-cell Proliferation Responses, Rhesus Monkey #7” value is recorded as 1+; the “T-cell Proliferation Responses, Rhesus Monkey #23” value is on record as 3+; the “T-cell Proliferation Responses, Rhesus Monkey #283C” value is 2+; the “proliferative responses” value is given as “weak responses”. Also, in the experiment with BALB/c mice, the “anti-peptide antibody titers (in words)” value is “very low to negligible”.

With GVPVWKEATTLFC [Peptide 105], the “proliferative responses” value in the experiment with PBMC is “A significant response was not detected”.

Consider “HGEFAPGNYPALWSYA [Peptide B105, reference compound]”, for which the “in vivo CTL response” value in the experiment with P815 was “successfully generated”.

HIGPGRAFYTTKN [Peptide H13N]: the syncytia result in [3] is “no syncytia were observed”. For the same sequence, the “inhibition of HIV-1 infection of primary human T cells” value (shortened to “inhibition … of primary human T cells”) with HIV-1 is on record as more than 60%.

KKFNGTGPCTN [Peptide 115]: in the experiment with BALB/c mice, the “anti-peptide antibody titers (in words)” value is recorded as “high antibody titers”.

Consider LWDQSLKPCVKLT [Peptide 111], for which, in the experiment with PBMC, the “T-cell Proliferation Responses, Rhesus Monkey #7” value is reported as 3+; the “T-cell Proliferation Responses, Rhesus Monkey #23” value was 2+; the “T-cell Proliferation Responses, Rhesus Monkey #283C” value is recorded as 3+; the “proliferative responses” value was “good proliferative responses”. The “anti-peptide antibody titers (in words)” value with BALB/c mice is “very low to negligible”.

For the sequence NNTRKSIRIQRGPGRAFVTIGKIG [Peptide N24G], in [2] (to achieve the same level of inhibition (30-60%)), the “concentration required for inhibition of syncytium formation” value is recorded as 300 µM. In addition, the “inhibition … of primary human T cells” value in the experiment with HIV-1 came out at 92%.

NNTRKSITKGPGRVIYATGQIIGD [Peptide D26]: the “RT ACTIVITY (CPM)” value in the experiment with HIV-1 IIIB turned out to be 2093 CPM.

For RIHIGPGARFLTTKN [Peptide D39], the “RT ACTIVITY (CPM)” value in the experiment with HIV-1 IIIB was 1978 CPM.

For the sequence RIHIGPGRAFFTTKN [Peptide D40], the “RT ACTIVITY (CPM)” value in the experiment with HIV-1 IIIB is reported as 2805 CPM.

As for RIHIGPGRAFYTTKN [Peptide D24], in the experiment with HIV-1 IIIB, the “RT ACTIVITY (CPM)” value is recorded as 5000 CPM.

RTPTGLGQSLYTTRS [Peptide D38]: the “RT ACTIVITY (CPM)” value with HIV-1 IIIB stood at 5823 CPM.

With RVTLGPGRVWYTTGE [Peptide D29], the “RT ACTIVITY (CPM)” value in the experiment on HIV-1 IIIB was 13009 CPM.

Turning to SIHIGPGRAFYATGD [Peptide D30], in the experiment on HIV-1 IIIB, the “RT ACTIVITY (CPM)” value was 3443 CPM.

Consider SIRIGPGKVFTAKGG [Peptide D31], for which the “RT ACTIVITY (CPM)” value in the experiment with HIV-1 IIIB turned out to be 11877 CPM.

Turning to SISIGPGRAFFATTD [Peptide D34], the “RT ACTIVITY (CPM)” value in the experiment on HIV-1 IIIB is recorded as 11142 CPM.

Turning to SITKGPGRVIYATGQ [Peptide D28], the “RT ACTIVITY (CPM)” value with HIV-1 IIIB is listed as 7634 CPM.

Regarding SIYIGPGRAFHTTGR [Peptide D32], the “RT ACTIVITY (CPM)” value in the experiment with HIV-1 IIIB worked out at 8002 CPM.

Take SLKPCVKLTPLC [Peptide 112]: the “anti-peptide antibody titers (in words)” value in the experiment with BALB/c mice is on record as “high antibody titers”.

On to SLSIGPGRAPRTREI [Peptide D25], for which, in the experiment on HIV-1 IIIB, the “RT ACTIVITY (CPM)” value is 4342 CPM.

As to STPIGLGQALYTTRG [Peptide D35], the “RT ACTIVITY (CPM)” value with HIV-1 IIIB is listed as 5242 CPM.

As for STPIGLGQALYTTRI [Peptide D37], in the experiment with HIV-1 IIIB, the “RT ACTIVITY (CPM)” value was 7027 CPM.

As to SVITQACSKVSFE [Peptide 113], in the experiment on PBMC, the “T-cell Proliferation Responses, Rhesus Monkey #7” value is given as 1+; the “T-cell Proliferation Responses, Rhesus Monkey #23” value is recorded as 2+; the “T-cell Proliferation Responses, Rhesus Monkey #283C” value is recorded as 2+; the “proliferative responses” value is reported as “weak responses”. Also, the “anti-peptide antibody titers (in words)” value in the experiment with BALB/c mice is “very low to negligible; also recorded: do not stimulate anti-peptide antibody production”. Further, in the experiment on PLN cells, the “T cell response directed” value is reported as “strong T cell response”.

As to TKGPGRVIYATGQ [Peptide T13Q], the syncytia result in [3] is “no syncytia were observed”. In addition, the “inhibition … of primary human T cells” value in the experiment on HIV-1 is more than 60%.

Consider “TYQRTRALVTG [Peptide B106, reference compound]”, for which the “% Specific Lysis” value in the experiment with 3A9 (E:T 80:1) and in the experiment with 3A9 (E:T 160:1) was 0% each time.

Turning to VQCTHGIRPVVSTQ [Peptide 117], the “anti-peptide antibody titers (in words)” value in the experiment on BALB/c mice was “high antibody titers”.

Take VYYGVPVWKEA [Peptide 104]: in the experiment with PBMC, the “T-cell Proliferation Responses, Rhesus Monkey #7” value is 4+; the “T-cell Proliferation Responses, Rhesus Monkey #23” value is 2+; the “T-cell Proliferation Responses, Rhesus Monkey #283C” value is 4+; the “proliferative responses” value was “good proliferative responses”. Further, the “anti-peptide antibody titers (in words)” value in the experiment with BALB/c mice was “very low to negligible; also recorded: do not stimulate anti-peptide antibody production”. For the same sequence, the “T cell response directed” value with PLN cells is “strong T cell response”.

Take YLRDQQLLGIWGC [Peptide 61]: in the experiment on PBMC, the “T-cell Proliferation Responses, Rhesus Monkey #23” value was 3+; the “T-cell Proliferation Responses, Rhesus Monkey #283C” value is reported as 2+; the “proliferative responses” value was “Two of the three rhesus monkey-derived PBMC preparations also showed good proliferative responses”. For the same sequence, in the experiment with BALB/c mice, the “anti-peptide antibody titers (in words)” value is recorded as “very low to negligible; also recorded: do not stimulate anti-peptide antibody production”. Besides, the “T cell response directed” value with PLN cells was “strong T cell response”.

YNKRKRIHIGPGRAFYTTKNNIGC [Peptide D23]: the “RT ACTIVITY (CPM)” value with HIV-1 IIIB turned out to be 94 CPM.
